Experimental data published in the NIST ThermoML archive (doi:10.1021/je200350a).
Numbers after ± are expanded uncertainties.

Conditions: 101.33 kPa, Liquid; for viscosity: Capillary tube (Ostwald / Ubbelohde) method

Row | Compound | mass density (293.15 K) | viscosity (293.15 K) | mass density (298.15 K) | viscosity (298.15 K) | mass density (303.15 K) | viscosity (303.15 K) | mass density (308.15 K) | viscosity (308.15 K)
1 | O=[N+]([O-])c1ccccc1 [nitrobenzene] | 1202.2 ± 1.2 kg/m3 | 1.983 ± 0.018 mPa·s | 1197.2 ± 1.2 kg/m3 | 1.809 ± 0.016 mPa·s | 1191.5 ± 1.2 kg/m3 | 1.659 ± 0.015 mPa·s | 1186.4 ± 1.2 kg/m3 | 1.529 ± 0.014 mPa·s
2 | CC1CCCCC1 [methylcyclohexane] | 770.1 ± 1.2 kg/m3 | 0.7293 ± 0.0071 mPa·s | 766.7 ± 1.2 kg/m3 | 0.6827 ± 0.0067 mPa·s | 761.8 ± 1.2 kg/m3 | 0.6385 ± 0.0063 mPa·s | 757.6 ± 1.2 kg/m3 | 0.5997 ± 0.006 mPa·s
3 | CCCCBr [1-bromobutane] | 1279.1 ± 1.5 kg/m3 | 0.6473 ± 0.0064 mPa·s | 1272.2 ± 1.4 kg/m3 | 0.6096 ± 0.0061 mPa·s | 1265.2 ± 1.4 kg/m3 | 0.5811 ± 0.0058 mPa·s | 1257.2 ± 1.4 kg/m3 | 0.55 ± 0.0056 mPa·s
